The source of these data is patent US20230339878A1, “SLC26A3 INHIBITORS AND USE THEREOF” (THE REGENTS OF THE UNIVERSITY OF CALIFORNIA, priority 2018, published 2023).

The target in assay [1] is T1, slc26a9 (Mus musculus, UniProt Q8BU91).
T1 construct: host or cells: HEK293 cells
T1 sequence (Q8BU91 1-790): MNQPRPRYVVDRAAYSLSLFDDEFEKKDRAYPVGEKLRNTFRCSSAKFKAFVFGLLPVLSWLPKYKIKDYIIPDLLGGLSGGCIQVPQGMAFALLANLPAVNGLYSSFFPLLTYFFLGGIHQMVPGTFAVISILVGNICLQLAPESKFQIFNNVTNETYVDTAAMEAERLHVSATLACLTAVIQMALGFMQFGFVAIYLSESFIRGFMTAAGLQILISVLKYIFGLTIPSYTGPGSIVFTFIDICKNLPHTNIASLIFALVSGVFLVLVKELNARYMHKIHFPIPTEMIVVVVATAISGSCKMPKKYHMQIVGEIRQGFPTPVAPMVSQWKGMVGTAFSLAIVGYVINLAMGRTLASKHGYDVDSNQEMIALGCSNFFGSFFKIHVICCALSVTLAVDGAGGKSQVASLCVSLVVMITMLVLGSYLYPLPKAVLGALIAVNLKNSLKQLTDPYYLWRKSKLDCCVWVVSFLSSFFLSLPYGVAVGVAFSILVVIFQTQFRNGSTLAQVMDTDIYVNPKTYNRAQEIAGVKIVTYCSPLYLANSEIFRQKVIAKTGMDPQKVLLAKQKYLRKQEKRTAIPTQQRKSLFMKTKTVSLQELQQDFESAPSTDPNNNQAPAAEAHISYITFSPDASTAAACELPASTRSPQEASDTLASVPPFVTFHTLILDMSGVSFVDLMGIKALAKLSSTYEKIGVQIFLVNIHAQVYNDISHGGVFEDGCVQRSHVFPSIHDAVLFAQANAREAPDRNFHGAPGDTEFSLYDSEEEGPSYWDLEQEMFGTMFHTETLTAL
Briefly: Selectivity: slc26a9 Cl-/I- exchange in HEK293 cells. The following applies: 10 µM. The format is cell-based, murine. From the text:
(§1) To investigate Compound A1 selectivity, transport assays were done on a panel of SLC26-family homologs, and other relevant epithelial ion transporters and channels. […] In separate studies, to investigate possible action of Compound A1 on multiple ion transporters and channels in a human epithelium, human bronchial epithelial (HBE) cells were studied by short-circuit current, with successive additions of amiloride (to block the epithelial sodium channel ENaC), forskolin, CFTRinh-172 (to block CFTR), and ATP (to activate the Ca^2+-activated chloride channel, CaCC) (FIG. 5C).
HEK293 cells transfected with pIRES-YFP-slc26a9 were plated in 96-well black-walled, clear-bottom tissue culture plates (Corning Life Sciences, Tewksbury, MA) after coating with FNC Coating Mix (AthenaES, Baltimore, MD). […] Assays of slc26a9-mediated anion exchange were done by initially recording YFP fluorescence prior to addition of 100 µL of NaI-substituted PBS to test wells, with the initial rate of Cl^-/I^- exchange deduced from fluorescence intensity by single exponential regression. […] To assay SLC26A3 function, HEK293 cells transduced with lentiviral particles generated from the pLVX-IRES-mCherry-SLC26A3 transfer vector were transfected to express YFP for Cl^-/I^- exchange assays as described above; red fluorescence images were acquired to confirm SLC26A3 expression in cells. […]

The target in assay [2] is T2, pendrin (slc26a4) (Mus musculus, UniProt Q9R155).
T2 construct: expressed in transfected cells; host or cells: FRT cells expressing YFP and slc26a4
T2 sequence (Q9R155 1-780): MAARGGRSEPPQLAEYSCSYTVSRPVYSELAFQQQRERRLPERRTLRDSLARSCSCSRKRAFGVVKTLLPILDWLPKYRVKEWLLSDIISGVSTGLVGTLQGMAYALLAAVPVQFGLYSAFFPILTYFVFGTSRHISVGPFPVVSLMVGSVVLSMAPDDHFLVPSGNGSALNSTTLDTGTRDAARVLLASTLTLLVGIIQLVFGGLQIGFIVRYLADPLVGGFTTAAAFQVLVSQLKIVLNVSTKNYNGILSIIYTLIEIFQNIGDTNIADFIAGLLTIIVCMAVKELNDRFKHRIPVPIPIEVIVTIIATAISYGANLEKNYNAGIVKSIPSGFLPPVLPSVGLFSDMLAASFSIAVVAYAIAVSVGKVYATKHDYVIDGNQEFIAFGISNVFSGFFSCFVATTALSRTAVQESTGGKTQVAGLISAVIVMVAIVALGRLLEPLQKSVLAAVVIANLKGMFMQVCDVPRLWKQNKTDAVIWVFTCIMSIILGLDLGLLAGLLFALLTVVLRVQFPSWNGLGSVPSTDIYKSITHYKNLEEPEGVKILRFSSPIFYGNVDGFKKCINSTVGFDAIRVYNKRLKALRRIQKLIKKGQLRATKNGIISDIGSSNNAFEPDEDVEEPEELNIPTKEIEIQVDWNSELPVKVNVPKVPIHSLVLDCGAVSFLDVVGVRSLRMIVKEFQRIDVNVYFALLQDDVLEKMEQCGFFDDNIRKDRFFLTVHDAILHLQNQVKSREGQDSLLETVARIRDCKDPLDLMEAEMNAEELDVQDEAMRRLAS
Briefly: Selectivity: pendrin-mediated Cl-/I- exchange, YFP assay. The format is cell-based, murine. As to conditions: 10 µM.
Excerpt: as §1
YFP-based assays of CFTR, pendrin and TMEM16A were as described. HEK cells transfected to express YFP and SLC26A3, slc26a6 or slc26a9 were functionally assayed using a Cl^-/I^- exchange protocol. Assays of Cl^-/HCO3^- exchange were done using BCECF as an intracellular pH indicator as described for pendrin. […]
HEK293 cells transfected with pIRES-YFP-slc26a9 were plated in 96-well black-walled, clear-bottom tissue culture plates (Corning Life Sciences, Tewksbury, MA) after coating with FNC Coating Mix (AthenaES, Baltimore, MD). […] Assays of slc26a9-mediated anion exchange were done by initially recording YFP fluorescence prior to addition of 100 µL of NaI-substituted PBS to test wells, with the initial rate of Cl^-/I^- exchange deduced from fluorescence intensity by single exponential regression. […]

Entries after “also recorded” stand apart in the source; their conditions may differ.

With `Cc1c(CC(=O)O)c(=O)oc2c(C)c(OCc3cccc(Br)c3)ccc12` [Compound A1], the “effect on Cl-/I- exchange activity of slc26a9” value in assay [1] was “did not alter; also recorded: differences not significant”. The “effect on Cl-/I- exchange activity of pendrin (slc26a4)” value in assay [2] is recorded as “did not alter; also recorded: did not inhibit; also recorded: differences not significant”.
